# Experimental data reported in patent US20140309229A1, “METHODS FOR SELECTING AND TREATING CANCER IN PATIENTS WITH IGF-1R/IR INHIBITORS” (priority 2011, published 2014).
# What was measured:
# Assay in all cases: MTS proliferation assay
# Assay type in all cases: cell-based, human
# [1] = system: SW48
# Protocol: (§1) Cell lines and in vitro cytotoxicity assay. Cells were maintained at 37° C. under standard cell culture conditions. Cells were plated at an optimized density for each cell line per well in 96-well microtiter FALCON® plates, incubated overnight, and then exposed to a serial dilution of drug. […] The results were expressed as an IC50, which is the drug concentration required to inhibit cell proliferation to 50% of that of untreated control cells. The mean IC50 and standard deviation (SD) from multiple tests for each cell line were calculated.
# (§2) In vitro Cellular Proliferation Assays.
# [2] = system: NCI-H716
# Protocol: as §1, §2
# [3] = system: RKO PM
# Protocol: as §1, §2
# [4] = system: COLO320DM
# Protocol: as §1, §2
# [5] = system: HT55
# Protocol: as §1, §2
# [6] = system: HCT116SS42
# Protocol: as §1, §2
# [7] = system: CACO-2
# Protocol: as §1, §2
# [8] = system: HCT8
# Protocol: as §1, §2
# [9] = system: SW1463
# Protocol: as §1, §2
# [10] = system: OUMS-23
# Protocol: as §1, §2
# [11] = system: LS-411N
# Protocol: as §1, §2
# [12] = system: SW403
# Protocol: as §1, §2
# [13] = system: CX-1
# Protocol: as §1, §2
# [14] = system: SW480
# Protocol: as §1, §2
# [15] = system: LS-180
# Protocol: as §1, §2
# [16] = system: LS-123
# Protocol: as §1, §2
# [17] = system: SNU175
# Protocol: as §1, §2
# [18] = system: LS-513
# Protocol: as §1, §2
# [19] = system: LoVo
# Protocol: as §1, §2
# [20] = system: HT-29
# Protocol: as §1, §2
# [21] = system: SW948
# Protocol: as §1, §2
# [22] = system: HCT-15
# Protocol: as §1, §2
# [23] = system: NCI-H747
# Protocol: as §1, §2
# [24] = system: SK-CO-1; settings: for IC50: Homo sapiens
# Protocol: as §1, §2
# [25] = system: SW1116
# Protocol: as §1, §2
# [26] = system: NCI-H508
# Protocol: as §1, §2
# [27] = system: SNU-61
# Protocol: as §1, §2
# [28] = system: KM12C
# Protocol: as §1, §2
smiles,measurement,setting,value
"C[C@@]1(C(=O)Nc2ccc(F)nc2)CCCN1c1nc(Nc2cc(C3CC3)n[nH]2)c2cccn2n1 [BMS-754807, (2S)-1-(4-((5-cyclopropyl-1H-pyrazol-3-yl)amino)pyrrolo[2,1-f][1,2,4]triazin-2-yl)-N-(6-fluoro-3-pyridinyl)-2-methyl-2-pyrrolidinecarboxamide]",IC50,"[1]; Homo sapiens, SW48, 72 h",13 nM
same,Sensitivity Classes,[1]; SW48,S (“S” refers Sensitive)
same,Sensitivity to BMS-754807,"[1]; SW48, preliminary panel of 45 CRC cell lines",Sensitive (a sensitive cell line was classified as one with an IC50 of ≦50 nmol/L)
same,IC50,"[2]; Homo sapiens, NCI-H716, 72 h",217 nM
same,Sensitivity Classes,[2]; NCI-H716,R (“R” refers Resistant)
same,Sensitivity to BMS-754807,"[2]; NCI-H716, preliminary panel of 45 CRC cell lines",Intermediate (remaining 30 cell lines classified as Intermediate or resistant)
same,IC50,"[3]; Homo sapiens, 72 h",857 nM
same,Sensitivity Classes,[3]; RKO PM,R (“R” refers Resistant)
same,Sensitivity to BMS-754807,"[3]; RKO PM, preliminary panel of 45 CRC cell lines",Resistant (resistant cell lines had IC50 values of >50 nmol/L)
same,Sensitivity Classes,[4]; COLO320DM,S (“S” refers Sensitive)
same,Sensitivity to BMS-754807,"[4]; COLO320DM, preliminary panel of 45 CRC cell lines",Sensitive (a sensitive cell line was classified as one with an IC50 of ≦50 nmol/L)
same,IC50,"[4]; Homo sapiens, COLO 320DM, 72 h",41 nM
same,Sensitivity Classes,[5]; HT55,S (“S” refers Sensitive)
same,IC50,"[5]; Homo sapiens, HT55, 72 h",3 nM
same,Sensitivity Classes,[6]; HCT116SS42,R (“R” refers Resistant)
same,Sensitivity to BMS-754807,"[6]; HCT116SS42, preliminary panel of 45 CRC cell lines",Intermediate (remaining 30 cell lines classified as Intermediate or resistant)
same,IC50,"[6]; Homo sapiens, 72 h",427 nM
same,Sensitivity Classes,[7]; CACO-2,R (“R” refers Resistant)
same,Sensitivity to BMS-754807,"[7]; CACO-2, preliminary panel of 45 CRC cell lines",Resistant (resistant cell lines had IC50 values of >50 nmol/L)
same,IC50,"[7]; Homo sapiens, Caco-2, 72 h",5500 nM
same,Sensitivity Classes,[8]; HCT8,R (“R” refers Resistant)
same,Sensitivity to BMS-754807,"[8]; HCT8, preliminary panel of 45 CRC cell lines",Resistant (resistant cell lines had IC50 values of >50 nmol/L)
same,IC50,"[8]; Homo sapiens, HCT-8, 72 h",4860 nM
same,IC50,"[9]; Homo sapiens, SW1463, 72 h",16 nM
same,Sensitivity Classes,[9]; SW1463,S (“S” refers Sensitive)
same,Sensitivity to BMS-754807,"[9]; SW1463, preliminary panel of 45 CRC cell lines",Sensitive (a sensitive cell line was classified as one with an IC50 of ≦50 nmol/L)
same,IC50,"[10]; Homo sapiens, OUMS-23, 72 h",2220 nM
same,Sensitivity Classes,[10]; OUMS-23,R (“R” refers Resistant)
same,IC50,"[11]; Homo sapiens, LS-411N, 72 h",99 nM
same,Sensitivity to BMS-754807,"[11]; LS411N, preliminary panel of 45 CRC cell lines",Intermediate (remaining 30 cell lines classified as Intermediate or resistant)
same,Sensitivity Classes,[11]; LS-411N,R (“R” refers Resistant)
same,IC50,"[12]; Homo sapiens, SW-403, 72 h",34 nM
same,Sensitivity Classes,[12]; SW403,S (“S” refers Sensitive)
same,Sensitivity to BMS-754807,"[12]; SW403, preliminary panel of 45 CRC cell lines",Sensitive (a sensitive cell line was classified as one with an IC50 of ≦50 nmol/L)
same,Sensitivity Classes,[13]; CX-1,R (“R” refers Resistant)
same,Sensitivity to BMS-754807,"[13]; CX-1, preliminary panel of 45 CRC cell lines",Intermediate (remaining 30 cell lines classified as Intermediate or resistant)
same,IC50,"[13]; Homo sapiens, CX-1, 72 h",194 nM
same,IC50,"[14]; Homo sapiens, SW480, 72 h",4890 nM
same,Sensitivity Classes,[14]; SW480,R (“R” refers Resistant)
same,Sensitivity to BMS-754807,"[14]; SW480, preliminary panel of 45 CRC cell lines",Resistant (resistant cell lines had IC50 values of >50 nmol/L)
same,IC50,"[15]; Homo sapiens, LS180, 72 h",629 nM
same,Sensitivity to BMS-754807,"[15]; LS180, preliminary panel of 45 CRC cell lines",Resistant (resistant cell lines had IC50 values of >50 nmol/L)
same,Sensitivity Classes,[15]; LS-180,R (“R” refers Resistant)
same,IC50,"[16]; Homo sapiens, LS-123, 72 h",4470 nM
same,Sensitivity to BMS-754807,"[16]; LS123, preliminary panel of 45 CRC cell lines",Resistant (resistant cell lines had IC50 values of >50 nmol/L)
same,Sensitivity Classes,[16]; LS-123,R (“R” refers Resistant)
same,IC50,"[17]; Homo sapiens, 72 h",3 nM
same,Sensitivity Classes,[17]; SNU175,S (“S” refers Sensitive)
same,IC50,"[18]; Homo sapiens, LS-513, 72 h",15 nM
same,Sensitivity to BMS-754807,"[18]; LS513, preliminary panel of 45 CRC cell lines",Sensitive (a sensitive cell line was classified as one with an IC50 of ≦50 nmol/L)
same,Sensitivity Classes,[18]; LS-513,S (“S” refers Sensitive)
same,IC50,"[19]; Homo sapiens, LoVo, 72 h",3870 nM
same,Sensitivity to BMS-754807,"[19]; LOVO, preliminary panel of 45 CRC cell lines",Resistant (resistant cell lines had IC50 values of >50 nmol/L)
same,Sensitivity Classes,[19]; LoVo,R (“R” refers Resistant)
same,Sensitivity to BMS-754807,"[20]; HT29, preliminary panel of 45 CRC cell lines",Intermediate (remaining 30 cell lines classified as Intermediate or resistant)
same,Sensitivity Classes,[20]; HT-29,R (“R” refers Resistant)
same,IC50,"[20]; Homo sapiens, HT-29, 72 h",451 nM
same,IC50,"[21]; Homo sapiens, SW948, 72 h",18 nM
same,Sensitivity Classes,[21]; SW948,S (“S” refers Sensitive)
same,Sensitivity to BMS-754807,"[21]; SW948, preliminary panel of 45 CRC cell lines",Sensitive (a sensitive cell line was classified as one with an IC50 of ≦50 nmol/L)
same,Sensitivity to BMS-754807,"[22]; HCT15, preliminary panel of 45 CRC cell lines",Resistant (resistant cell lines had IC50 values of >50 nmol/L)
same,Sensitivity Classes,[22]; HCT-15,R (“R” refers Resistant)
same,IC50,"[22]; Homo sapiens, HCT-15, 72 h",757 nM
same,IC50,"[23]; Homo sapiens, NCI-H747, 72 h",1160 nM
same,Sensitivity Classes,[23]; NCI-H747,R (“R” refers Resistant)
same,Sensitivity to BMS-754807,"[23]; NCI-H747, preliminary panel of 45 CRC cell lines",Resistant (resistant cell lines had IC50 values of >50 nmol/L)
same,IC50,[24]; SK-CO-1,3 nM
same,IC50,"[24]; SK-CO-1, 72 h",3 nM
same,Sensitivity Classes,[24]; SK-CO-1,S (“S” refers Sensitive)
same,Sensitivity to BMS-754807,"[24]; SK-CO-1, preliminary panel of 45 CRC cell lines",Sensitive (a sensitive cell line was classified as one with an IC50 of ≦50 nmol/L)
same,IC50,"[25]; Homo sapiens, SW 1116, 72 h",24 nM
same,Sensitivity Classes,[25]; SW1116,S (“S” refers Sensitive)
same,Sensitivity to BMS-754807,"[25]; SW1116, preliminary panel of 45 CRC cell lines",Sensitive (a sensitive cell line was classified as one with an IC50 of ≦50 nmol/L)
same,Sensitivity to BMS-754807,"[26]; H508, preliminary panel of 45 CRC cell lines",Sensitive (a sensitive cell line was classified as one with an IC50 of ≦50 nmol/L)
same,IC50,"[26]; Homo sapiens, NCI-H508, 72 h",11 nM
same,Sensitivity Classes,[26]; NCI-H508,S (“S” refers Sensitive)
same,IC50,"[27]; Homo sapiens, 72 h",35 nM
same,Sensitivity Classes,[27]; SNU-61,S (“S” refers Sensitive)
same,Sensitivity Classes,[28],S (“S” refers Sensitive)
same,IC50,"[28]; Homo sapiens, 72 h",33 nM
same,Sensitivity to BMS-754807,[28]; preliminary panel of 45 CRC cell lines,Sensitive (a sensitive cell line was classified as one with an IC50 of ≦50 nmol/L)
